From US8765775B2, “Anti-angiogenic compounds” (Universitaet Zuerich, priority 2008, dated 2014) come the findings set out here.

pIC50, pKi: −log10 of the molar value. Several values for one entry are separate records, joined by “and”; a condition that tells them apart may be missing. Equal values may be shown once.

The target of test [1] is T1, EphB4 (Homo sapiens, UniProt P54760).
T1 sequence (P54760 16-987): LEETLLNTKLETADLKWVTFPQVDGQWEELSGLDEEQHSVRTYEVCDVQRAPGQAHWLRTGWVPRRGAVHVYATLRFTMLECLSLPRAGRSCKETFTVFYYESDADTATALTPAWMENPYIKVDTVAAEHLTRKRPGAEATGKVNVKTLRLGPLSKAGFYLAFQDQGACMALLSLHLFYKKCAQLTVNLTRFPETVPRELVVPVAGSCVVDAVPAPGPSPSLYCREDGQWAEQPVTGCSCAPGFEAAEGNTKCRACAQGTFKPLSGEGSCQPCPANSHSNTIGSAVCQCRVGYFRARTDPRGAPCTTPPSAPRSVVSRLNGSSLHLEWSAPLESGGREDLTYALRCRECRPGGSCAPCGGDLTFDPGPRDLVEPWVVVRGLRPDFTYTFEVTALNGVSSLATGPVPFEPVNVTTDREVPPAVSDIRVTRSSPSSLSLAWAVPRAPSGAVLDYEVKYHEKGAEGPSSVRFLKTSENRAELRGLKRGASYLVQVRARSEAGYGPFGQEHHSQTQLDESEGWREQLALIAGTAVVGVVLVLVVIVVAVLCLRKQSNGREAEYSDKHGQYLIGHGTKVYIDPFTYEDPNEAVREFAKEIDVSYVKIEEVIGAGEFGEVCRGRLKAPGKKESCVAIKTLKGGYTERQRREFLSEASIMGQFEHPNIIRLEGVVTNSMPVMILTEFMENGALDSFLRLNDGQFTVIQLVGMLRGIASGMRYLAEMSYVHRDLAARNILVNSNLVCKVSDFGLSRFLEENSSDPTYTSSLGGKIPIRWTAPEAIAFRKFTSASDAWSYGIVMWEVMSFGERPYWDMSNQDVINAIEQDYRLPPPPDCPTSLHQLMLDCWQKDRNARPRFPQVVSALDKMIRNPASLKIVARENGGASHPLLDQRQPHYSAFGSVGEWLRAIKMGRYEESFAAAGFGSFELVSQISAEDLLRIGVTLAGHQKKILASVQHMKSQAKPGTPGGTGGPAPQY
Kind of test: IC50 and % inhibition (Table 3). It counts as biochemical. The conditions noted are these: for pIC50: repeated determinations.

For test [2], the target named is T1, EphB4. Kind of test: Panvera Z'Lyte FRET-based enzymatic assay.
Method: In vitro kinase activity was measured using the Panvera Z'Lyte Tyr2 kinase assay PV3191 (Invitrogen, USA), according to the manufacturer's instructions. […] The reaction is performed at room temperature for 1 hour.
The target in test [3] is T1, EphB4. Kind of test: Omnia kinetic assay (Omnia Tyr Recombinant Kit KNZ4051). The format is biochemical. The arrangement: purchased Proqinase, Germany. The protocol: The data obtained in these experiments are shown in a specific velocity plot (FIG. 2), where the ratio of the initial velocities for the non-inhibited and inhibited reactions at a given ATP concentration (v0/vi in FIG. 2) is plotted versus σ/(1+σ), with σ=[ATP]/Km. […] Kinetic assay. […] Fluorescence progress curves are measured upon excitation at 360 nm and emission at 485 nm. […] Biosource Omnia. […] The assay is run at 30° C. for 1 hour.

For test [4], the target named is T1, EphB4. Kind of test: Cerep FRET-based enzymatic assay. The conditions noted are these: ATP 0.75 μM, read-out: Enzymatic assays IC50 Cerep. It counts as biochemical. The source says:
Similar values of IC50 compared to the original FRET-based enzymatic assay (Z'Lyte) are obtained (Table 2).

The target in test [5] is T2, myc-tagged full-length human EphB4 (Homo sapiens, UniProt P54760).
T2 construct: stably transfected with myc-tagged full-length human EphB4; expressed in transfected cells; host or cells: CHO-FRT cells (Flip-In System, Invitrogen)
T2 sequence (P54760 16-987): T1 sequence (P54760 16-987)
Kind of test: Phospho-EphB4 ELISA of CHO cells (EphB4 autophosphorylation). It counts as cell-based. On the procedure: Phospho-EphB4 ELISA of CHO cells. The ELISA assay was performed as follows: Chinese hamster ovary (CHO)-FRT cells are stably transfected with myc-tagged full-length human EphB4 according to the Flip-In System protocol (Invitrogen, USA). […] Cells of this clone are preincubated with EphB4 inhibitors for 15 minutes and then stimulated with preclustered ephrinB2-Fc for 45 minutes at 37° C. Cells are lysed, transferred to a 96-well plate coated with anti-myc antibody and incubated overnight at 4° C. After incubation with anti-phosphotyrosine antibody, reactions are developed with BM Blue peroxydase substrate, and autophosphorylation of EphB4 is quantified by measuring absorption at 450 nm.

On to `Cn1c(=O)[nH]c(=O)c2c1nc1n(CCCCO)c(-c3ccccc3)cn21` [Compound 2], for which the % inhibition – broadly, the relative decrease from the control value, in per cent – at indicated concentration C at EphB4 [1] (C = 10 μM, 10 µM) was 67% and 68% and 59% and 64%. Also, the inhibition at 10 µM on EphB4 [1] (C = 10 μM, read-out: % inhibition at indicated concentration C) amounted to 72%. In addition, the pIC50 (in general, the negative decadic logarithm of the IC50, by convention in mol/L) on EphB4 [1] (IC50, Table 3) is 5.17; on EphB4 [1] (Table 3, read-out: IC50), 5.10 and 5.15; against EphB4 [2], about 5.80; at EphB4 [2] (Enzymatic assays IC50 Z′Lyte, FRET-based, 10 μM ATP, 1% DMSO, room temperature 1 hour) it was 5.85 and 5.74; at EphB4 [3] (two experiments, without and with 0.01% Triton X-100, ATP 125 μM, 30° C. 1 hour, read-out: Enzymatic assays IC50 Omnia), 5.25 and 5.10; at EphB4 [4] it was 5.17. Also, the “Sensitivity of inhibition to detergent (in words)” value on EphB4 [3] (0.01% Triton X-100) was “detergent-insensitive inhibition”. Further, the “Mode of inhibition versus ATP (specific velocity plot)” value at EphB4 [3] (ATP 31.25 to 500 μM, Km 158 μM) is recorded as “ATP competitive”. The pKi – broadly, the negative decadic logarithm of the Ki, by convention in mol/L – at EphB4 [3] (two experiments, with and without 0.01% Triton X-100, read-out: Ki corresponding to Omnia IC50) is 5.57 and 5.54. In addition, in test [5] (20 μM), the “Inhibitory effects on EphB4 autophosphorylation in CHO cells (in words)” value was “only mild inhibitory effects”. In test [5] (in CHO cells, at 20 μM), the “Cell-based assay percent inhibition” value is “neg”.
